Results reported in patent US20220378809A1, “SYNTHETIC COMPOSITION FOR BALANCING THE BILE ACID PROFILE IN THE INTESTINE” (GLYCOM A/S, priority 2019, published 2022).

What was measured:
colonic microbiota = assay: In vitro intestinal system simulating the colon of a human infected with C. difficile, after Vancomycin treatment; settings: end of washout period
Source text: An in vitro intestinal system is used to simulate the colon region in a human infected with C. difficile. The system is inoculated with fresh faecal samples from a healthy individual aged >65 years. The system is run for two weeks as a set up period to stabilise the system. The system is fed daily with a feed solution and with bile acids (primarily taurocholic acid and glycocholic acid). Afterwards, two different interventions are run in parallel for 4 weeks. • Intervention: daily addition of 2′-FL and LNnT (ratio 4:1 by weight) plus an antibiotic (Vancomycin) for seven days, followed by 2′-FL and LNnT (ratio 4:1 by weight) without antibiotic for the next 3 weeks (wash out period), • Control: an antibiotic (Vancomycin) for seven days, followed by no intervention for the next 3 weeks (wash out period). During the antibiotic treatment and washout periods, both the intervention and the control receive the same daily feed including bile acids. At three time points (end of set up period, end of antibiotic treatment, and end of wash out period), the microbiota community and bile acids are measured using 16S sequencing and HPLC-UV method, respectively. The in vitro intestinal system is run as in example 1 except that the intervention is a daily addition of 2′-FL plus an antibiotic (Vancomycin) for seven days, followed by 2′-FL alone for the next 3 weeks (wash out period). The control is as in example b 1. • Control: an antibiotic (Vancomycin) for seven days, followed by no intervention for the next 3 weeks (wash out period).

intestinal cells = settings: cited from earlier work
[1] = tested on: dextran sodium sulphate-induced colitis; settings: mice; daily oral administration; cited from earlier work

Molecule: 2′-fucosyllactose [2′-FL]
- colonic bile acid metabolism (colonic microbiota): re-established
- restoration of the microbiota (colonic microbiota; 16S sequencing): restored
- secondary bile acids (colonic microbiota; HPLC-UV): presence of the secondary bile acid deoxycholic acid (DCA)
- primary bile acids (cholic acid (CA) and glyco-chenodeoxycholic acid (GCDCA)) (colonic microbiota; HPLC-UV, versus Vancomycin-only control): decrease in primary bile acids

Molecule: C[C@H](CCC(=O)O)[C@H]1CC[C@H]2[C@@H]3[C@H](O)C[C@@H]4C[C@H](O)CC[C@]4(C)[C@H]3CC[C@]12C [CDCA, chenodeoxycholic acid]
- permeability of intestinal cells (intestinal cells): increased the permeability
- release of proinflammatory cytokines (intestinal cells): increased

Molecule: C[C@H](CCC(=O)NCC(=O)O)[C@H]1CC[C@H]2[C@@H]3[C@@H](O)C[C@@H]4C[C@H](O)CC[C@]4(C)[C@H]3CC[C@]12C [GUDCA, glycoursodeoxycholic acid]
- severity of dextran sodium sulphate-induced colitis [1]: equally lowered the severity

Molecule: C[C@H](CCC(=O)NCCS(=O)(=O)O)[C@H]1CC[C@H]2[C@@H]3[C@@H](O)C[C@@H]4C[C@H](O)CC[C@]4(C)[C@H]3CC[C@]12C [TUDCA, tauroursodeoxycholic acid]
- severity of dextran sodium sulphate-induced colitis [1]: equally lowered the severity
